The assay relates to Eschericia coli strain ATCC25922. Nature of the assay: standard microdilution assay to determine minimum inhibitory concentrations (MICs). Type of assay: cell-based. Particulars: Escherichia coli, ATCC25922, Eschericia coli strain ATCC25922, standard microdilution assay; read-out: E. coli ATCC25922 MIC. The procedure, abridged:
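Broth microdilution per CLSI protocols, typically 100 µL final volume, against E. coli ATCC25922. MIC values scored as +/− against a cutoff of 16 micrograms/ml.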
A general note: Dilution methods test growth across graded concentrations, often in twofold steps.

Consider `NCCCNCc1ccc(-c2c[nH]c(NC(=O)NCCc3ccc(F)cc3)nc2=O)cc1F` [Compound 435], for which the MIC is above 16 µg/mL.
In the case of `NCCCNCc1ccc(-c2c[nH]c(NC(=O)Nc3ccc(Cl)cc3F)nc2=O)cc1F` [Compound 436] it was below 16 µg/mL.
In the case of `NCCCNCc1ccc(-c2c[nH]c(NC(=O)NCCc3c(Cl)cccc3Cl)nc2=O)cc1F` [Compound 437] it was above 16 µg/mL.
Next, `NCCCNCc1ccc(-c2c[nH]c(Nc3nc4cc(F)c(F)cc4[nH]3)nc2=O)cc1` [Compound 438]: below 16 µg/mL.
On to `NCCCNCc1ccc(-c2c[nH]c(Nc3nc4cc(F)c(F)cc4[nH]3)nc2=O)cc1F` [Compound 439], for which the MIC is below 16 µg/mL.
Next, `O=C(Nc1nc(=O)c(-c2ccc(CNCCC3CC3)cc2)c[nH]1)Nc1ccccc1OC(F)(F)F` [Compound 441]: above 16 µg/mL; `N#CCCCN(CCCN)Cc1ccc(-c2c[nH]c(NC(=O)Nc3cc(F)c(F)cc3F)nc2=O)cc1` [Compound 443]: above 16 µg/mL; `NCCCN(CCCNC(N)=O)Cc1ccc(-c2c[nH]c(NC(=O)Nc3cc(F)c(F)cc3F)nc2=O)cc1` [Compound 444]: above 16 µg/mL.
Turning to `NCCCNCc1ccc(-c2c[nH]c(NC(=O)Nc3cccc4nsnc34)nc2=O)cc1F` [Compound 445], the MIC was above 16 µg/mL.
Take `Cc1ncc(-c2cccc(NC(=O)Nc3nc(=O)c(-c4ccc(CNCCCN)c(F)c4)c[nH]3)c2)s1` [Compound 446]: the MIC was above 16 µg/mL.
In the case of `O=C(Nc1nc(=O)c(-c2ccc(CNCCc3c[nH]c(=O)[nH]3)cc2)c[nH]1)Nc1ccccc1OC(F)(F)F` [Compound 448] it was above 16 µg/mL; in that of `NCCCNCc1ccc(-c2c[nH]c(NC(=O)Nc3c(F)c(F)c(F)c(F)c3F)nc2=O)cc1F` [Compound 449], above 16 µg/mL.
In the case of `NCCCNCc1ccc(-c2c[nH]c(NC(=O)Nc3cccc(Cl)c3F)nc2=O)cc1F` [Compound 450] it was below 16 µg/mL; in that of `NCCCNCc1ccc(-c2c[nH]c(NC(=O)NCCc3ccc(Cl)c(Cl)c3)nc2=O)cc1F` [Compound 451], below 16 µg/mL; in that of `N#Cc1ccc(NC(=O)Nc2nc(=O)c(-c3ccc(CN(CCCN)CCCNC(=N)N)cc3)c[nH]2)cc1` [Compound 452], below 16 µg/mL.
As to `N=C(N)NCCCN(CCCN)Cc1ccc(-c2c[nH]c(NC(=O)Nc3cc(Cl)cc(Cl)c3)nc2=O)cc1` [Compound 453], the minimum inhibitory concentration (MIC) is below 16 µg/mL.
In the case of `NCCCNCc1ccc(-c2c[nH]c(Nc3nc4cc(F)c(F)cc4o3)nc2=O)cc1` [Compound 454] it was below 16 µg/mL; in that of `NCCCN1CCC(c2c[nH]c(NC(=O)Nc3ccccc3OC(F)(F)F)nc2=O)CC1` [Compound 455], above 16 µg/mL; in that of `NC(N)NCCCN1CCC(c2c[nH]c(NC(=O)Nc3ccccc3OC(F)(F)F)nc2=O)CC1` [Compound 456], above 16 µg/mL.
On to `NCCCNCc1ccc(-c2c[nH]c(NC(=O)Nc3cc([N+](=O)[O-])ccc3Cl)nc2=O)cc1F` [Compound 457], for which the MIC is above 16 µg/mL.
Next, `NCCCNCc1ccc(-c2c[nH]c(Nc3nc4cc(F)c(F)cc4[nH]3)nc2=O)c(F)c1` [Compound 458]: below 16 µg/mL; `NCCCNCc1ccc(-c2c[nH]c(NC(=O)Nc3ccc(Cl)c(C(F)(F)F)c3)nc2=O)cc1F` [Compound 459]: above 16 µg/mL; `NCCCNCc1ccc(-c2c[nH]c(NC(=O)Nc3c(Cl)cc(Cl)cc3Cl)nc2=O)cc1F` [Compound 461]: above 16 µg/mL.
Turning to `NCCCNCc1ccc(-c2c[nH]c(NC(=O)Nc3ccc(F)c(F)c3F)nc2=O)cc1F` [Compound 462], the MIC was above 16 µg/mL.
Next, `NCCCNCc1ccc(-c2c[nH]c(NC(=O)NCc3ccc(Cl)cc3Cl)nc2=O)cc1F` [Compound 463]: below 16 µg/mL; `NCCCNCc1ccc(-c2c[nH]c(NC(=O)NCc3ccc(Cl)c(Cl)c3)nc2=O)cc1F` [Compound 464]: above 16 µg/mL.
Turning to `N=C(N)NCCCN(CCCN)Cc1ccc(-c2c[nH]c(NC(=O)NCCc3ccc(F)cc3)nc2=O)cc1` [Compound 465], the MIC is above 16 µg/mL.
In the case of `N=C(N)NCCCC(CCCN)Cc1ccc(-c2c[nH]c(NC(=O)NCCc3cccc(Cl)c3)nc2=O)cc1` (centres unmarked) [Compound 466] it was above 16 µg/mL.
Next, `NCCCNCc1ccc(-c2c[nH]c(Nc3nc4cc(F)c(F)cc4o3)nc2=O)c(F)c1` [Compound 467]: below 16 µg/mL; `NCCCN(CCCN)Cc1ccc(-c2c[nH]c(Nc3nc4cc(F)c(F)cc4[nH]3)nc2=O)cc1` [Compound 468]: below 16 µg/mL; `NCCCN(CCCN)Cc1ccc(-c2c[nH]c(Nc3nc4cc(F)c(F)cc4o3)nc2=O)cc1` [Compound 470]: below 16 µg/mL.
Next, `NCCCNCc1ccc(-c2c[nH]c(Nc3nc4cc(F)c(F)cc4o3)nc2=O)cc1F` [Compound 471]: below 16 µg/mL.
Take `Cc1c(Cl)cc2nc(Nc3nc(=O)c(-c4ccc(CN(CCCN)CCCN)c(F)c4)c[nH]3)oc2c1Cl` [Compound 472]: the MIC was above 16 µg/mL.
In the case of `NCCCN(CCCN)Cc1ccc(-c2c[nH]c(Nc3nc4ccccc4[nH]3)nc2=O)cc1` [Compound 473] it was above 16 µg/mL; in that of `NCCCN(CCCNC(N)N)Cc1ccc(-c2c[nH]c(Nc3nc4ccccc4[nH]3)nc2=O)cc1` [Compound 474], below 16 µg/mL; in that of `N=C(N)NCCCN(CCCN)Cc1ccc(-c2c[nH]c(NC(=O)NCCc3ccc(Cl)cc3Cl)nc2=O)cc1` [Compound 476], above 16 µg/mL.
In the case of `N=C(N)NCCCN(CCCN)Cc1ccc(-c2c[nH]c(NC(=O)NCCc3c(Cl)cccc3Cl)nc2=O)cc1` [Compound 477] it was above 16 µg/mL.
Turning to `N=C(N)NCCCN(CCCN)Cc1ccc(-c2c[nH]c(NC(=O)NCCc3ccc(Cl)c(Cl)c3)nc2=O)cc1` [Compound 478], the minimal inhibitory concentration (MIC) is above 16 µg/mL.
Next, `NCCCNCc1ccc(-c2c[nH]c(NC(=O)Nc3c(Cl)cccc3Cl)nc2=O)cc1F` [Compound 479]: above 16 µg/mL; `NCCCNCc1ccc(-c2c[nH]c(NC(=O)Nc3cc(Cl)ccc3Cl)nc2=O)cc1F` [Compound 480]: below 16 µg/mL; `Cc1ccc(NC(=O)Nc2nc(=O)c(-c3ccc(CNCCCN)c(F)c3)c[nH]2)cc1C(F)(F)F` [Compound 481]: above 16 µg/mL.
In the case of `NCCCNCc1ccc(-c2c[nH]c(NC(=O)Nc3cc(F)cc(C(F)(F)F)c3)nc2=O)cc1F` [Compound 482] it was above 16 µg/mL; in that of `NCCCNCc1ccc(-c2c[nH]c(NC(=O)Nc3cc(N)ccc3Cl)nc2=O)cc1F` [Compound 483], above 16 µg/mL; in that of `N=C(N)NCCCN1CC2(CCN(c3c[nH]c(NC(=O)Nc4ccccc4OC(F)(F)F)nc3=O)CC2)C1` [Compound 484], above 16 µg/mL.
Next, `NCCCNCc1ccc(-c2c[nH]c(NC(=O)Nc3cccc([N+](=O)[O-])c3)nc2=O)cc1F` [Compound 485]: above 16 µg/mL; `N#Cc1cccc(NC(=O)Nc2nc(=O)c(-c3ccc(CNCCCN)c(F)c3)c[nH]2)c1` [Compound 486]: above 16 µg/mL; `NCCCNCc1ccc(-c2c[nH]c(Nc3ccc(C(F)(F)F)cc3)nc2=O)cc1` [Compound 487]: above 16 µg/mL.
With `NCCCNCc1ccc(-c2c[nH]c(Nc3ccc(C(F)(F)F)cc3)nc2=O)cc1F` [Compound 488], the MIC is above 16 µg/mL.
In the case of `NCCCN(CCCN)Cc1ccc(-c2c[nH]c(Nc3ccc(C(F)(F)F)cc3)nc2=O)cc1F` [Compound 489] it was above 16 µg/mL.
In the case of `N=C(N)NCCCN(CCCN)Cc1ccc(-c2c[nH]c(Nc3ccc(C(F)(F)F)cc3)nc2=O)cc1F` [Compound 490] it was above 16 µg/mL; in that of `N=C(N)NCCCN1CCCN(c2c[nH]c(NC(=O)Nc3ccccc3OC(F)(F)F)nc2=O)CC1` [Compound 491], above 16 µg/mL.
In the case of `NCCCN1CCCN(c2c[nH]c(NC(=O)Nc3ccccc3OC(F)(F)F)nc2=O)CC1` [Compound 492] it was above 16 µg/mL; in that of `NCCCNCc1ccc(-c2c[nH]c(Nc3nc4ccccc4[nH]3)nc2=O)c(F)c1` [Compound 493], below 16 µg/mL; in that of `NCCCNCc1ccc(-c2c[nH]c(NC(=O)Nc3ccc([N+](=O)[O-])cc3Cl)nc2=O)cc1F` [Compound 494], above 16 µg/mL.
For the compound `Cc1cc([N+](=O)[O-])ccc1NC(=O)Nc1nc(=O)c(-c2ccc(CNCCCN)c(F)c2)c[nH]1` [Compound 495], the minimum inhibitory concentration (MIC) is above 16 µg/mL.
In the case of `NCCCNCc1ccc(-c2c[nH]c(NC(=O)Nc3ccc(Cl)cc3Cl)nc2=O)cc1F` [Compound 496] it was below 16 µg/mL.
In the case of `NCCCNCc1ccc(-c2c[nH]c(NC(=O)Nc3cc(C(F)(F)F)ccc3Cl)nc2=O)cc1F` [Compound 497] it was below 16 µg/mL.
On to `NCCCCCN1CCC(c2c[nH]c(Nc3nc4ccccc4[nH]3)nc2=O)CC1` [Compound 499], for which the minimal inhibitory concentration (MIC) is above 16 µg/mL.
Consider `Cc1cc(CNCCCN)ccc1-c1c[nH]c(NC(=O)Nc2ccccc2OC(F)(F)F)nc1=O` [Compound 500], for which the MIC is below 16 µg/mL.
Next, `N=C(N)NCCCCCN1CCN(c2c[nH]c(NC(=O)Nc3cccc(Cl)c3F)nc2=O)CC1` [Compound 502]: above 16 µg/mL.
`N=C(N)NCCCCCN1CCC(c2c[nH]c(Nc3nc4ccccc4[nH]3)nc2=O)CC1` [Compound 503]: the minimum inhibitory concentration (MIC) is above 16 µg/mL.
In the case of `NCCCCCN1CCN(c2c[nH]c(NC(=O)Nc3cc(F)c(F)cc3F)nc2=O)CC1` [Compound 504] it was above 16 µg/mL.
In the case of `N=C(N)NCCCCCN1CCN(c2c[nH]c(NC(=O)Nc3cc(F)c(F)cc3F)nc2=O)CC1` [Compound 505] it was above 16 µg/mL.
In the case of `NCCCCN1CCC(c2c[nH]c(Nc3nc4ccccc4[nH]3)nc2=O)CC1` [Compound 509] it was above 16 µg/mL.
Regarding `N=C(N)NCCCCN1CCC(c2c[nH]c(Nc3nc4ccccc4[nH]3)nc2=O)CC1` [Compound 510], the MIC was above 16 µg/mL.
Regarding `NCCCNCc1ccc(-c2c[nH]c(NC(=O)NCCc3ccccc3OC(F)(F)F)nc2=O)cc1F` [Compound 512], the MIC is above 16 µg/mL.
In the case of `N=C(N)NCCCNCc1ccc(-c2c[nH]c(NC(=O)NCCc3ccccc3OC(F)(F)F)nc2=O)cc1F` [Compound 513] it was above 16 µg/mL; in that of `NCCCCCN1CCN(c2c[nH]c(Nc3nc4ccccc4[nH]3)nc2=O)CC1` [Compound 514], above 16 µg/mL.

Broadly, the MIC is the smallest concentration in the dilution series that meets the test's criterion for growth inhibition.
